For nine compounds, Ki results are on record in patent US6528522B2, “Substituted imidazoles as dual histamine H1 and H3 agonists or antagonists” (Schering Corporation, priority 2000, dated 2003).

One test has as its target T1, H3 receptors (Cavia porcellus, UniProt Q9JI35).
T1 construct: The source of the H3 receptors in this experiment was guinea pig brain; from tissue; host or cells: guinea pig brain membranes
The test is described as follows: H3-Receptor Binding Assay (guinea pig brain membranes, [3H]R-α-methyl histamine or [3H]Nα-methyl histamine). As to conditions: HCl salt of the indicated compound, read-out: H3 Ave Ki. On the procedure:
General Procedure for H3—Receptor Binding Assay
The source of the H3 receptors in this experiment was guinea pig brain. The animals weighed 400-600 g. The brain tissue was homogenized with a solution of 50 mM Tris, pH 7.5. The final concentration of tissue in the homogenization buffer was 10% w/v. The homogenates were centrifuged at 1,000×g for 10 min. in order to remove clumps of tissue and debris. The resulting supernatants were then centrifuged at 50,000×g for 20 min. in order to sediment the membranes, which were next washed three times in homogenization buffer (50,000×g for 20 min. each). The membranes were frozen and stored at −70° C. until needed.
All compounds to be tested were dissolved in DMSO and then diluted into the binding buffer (50 mM Tris, pH 7.5) such that the final concentration was 2 μg/ml with 0.1% DMSO. Membranes were then added (400 μg of protein) to the reaction tubes. The reaction was started by the addition of 3 nM [^3H]R-α-methyl histamine (8.8 Ci/mmol) or 3 nM [^3H]N^α-methyl histamine (80 Ci/mmol) and continued under incubation at 30° C. for 30 min. Bound ligand was separated from unbound ligand by filtration, and the amount of radioactive ligand bound to the membranes was quantitated by liquid scintillation spectrometry. All incubations were performed in duplicate and the standard error was always less than 10%. Compounds that inhibited more than 70% of the specific binding of radioactive ligand to the receptor were serially diluted to determine a Ki (nM). The results are given in the Table 1 for the HCl salt of the indicated compound.

In a further test the target is T2, histamine H1 receptor (Rattus norvegicus, UniProt P31390).
T2 construct: The tissue source was male Sprague-Dawley rat brain; tissue Rockland Corporation, Gilbertsville, Pa; host or cells: male Sprague-Dawley rat brain membranes
T2 sequence (P31390 whole entry): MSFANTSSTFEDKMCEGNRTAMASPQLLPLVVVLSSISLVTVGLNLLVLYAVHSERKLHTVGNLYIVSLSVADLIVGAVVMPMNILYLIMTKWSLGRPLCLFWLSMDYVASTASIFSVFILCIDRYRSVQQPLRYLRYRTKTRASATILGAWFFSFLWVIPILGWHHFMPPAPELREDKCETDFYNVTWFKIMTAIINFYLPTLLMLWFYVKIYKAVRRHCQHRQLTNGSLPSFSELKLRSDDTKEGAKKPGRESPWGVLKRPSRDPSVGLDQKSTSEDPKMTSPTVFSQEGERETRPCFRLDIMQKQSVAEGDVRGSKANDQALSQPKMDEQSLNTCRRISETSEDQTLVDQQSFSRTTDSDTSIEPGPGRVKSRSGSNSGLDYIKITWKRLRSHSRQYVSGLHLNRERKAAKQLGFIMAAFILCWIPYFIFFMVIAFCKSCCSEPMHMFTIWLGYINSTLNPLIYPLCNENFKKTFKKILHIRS
Kind of test: H1-Receptor Binding Assay (rat brain membranes, [3H]pyrilamine). As to conditions: male Sprague-Dawley rat brain membranes, Ki by Cheng-Prusoff, HCl salt of the indicated compound, read-out: H1 Ave Ki. The text has this:
General Procedure for H1.—Receptor Binding Assay: The procedure used was based on that disclosed in V. T. Tran et al, “Histamine H1 receptors identified in mammalian brain membranes with [H-3]mepyramine”, Proc. Natl. Acad. Sci. U.S.A. 75 (1978) 6290-6294.
I. Tissue preparation protocol for histamine H1 receptor binding assay:
1. The tissue source was male Sprague-Dawley rat brain. These were purchased stripped and frozen (available from Rockland Corporation, Gilbertsville, Pa.). The buffer used was ice-cold 50 mM Tris-HCl, pH 7.5. (The pH was determined at 25° C.)
2. The brains were spread out on plastic wrap on the benchtop and allowed to thaw for 10-15 min. After this, everything was kept ice-cold.
3. Two brains were put in each 50 ml round bottom centrifuge tube and 25 ml of buffer was added. Then they were broken up with a Polytron (from Brinkmann Instruments, Westbury, N.Y.) equipped with a PT-10 tip at setting 6 for 30 sec.
4. The volume in the tube was brought up to 45 ml and mixed and the particulate material was centrifuged at 1000×g (3000 rpm, SS-34 rotor) for 10 min to remove nuclei and unbroken cells.
5. Pellets were discarded and the supernatants were centrifuged 10 min at 50,000×g (20,000 rpm, SS-34 rotor).
6. The high-speed pellets were resuspended in a volume of Tris buffer equal to the original (4 ml), the contents of all tubes were pooled, and a sample was taken for BCA protein assay . The material was aliquotted, 45 ml per round-bottom tube, and the resuspension was recentrifuged. The yield of protein was approximately 20 mg/brain, so there was about 40 mg of protein per tube.
7 . Pellets were frozen at −80° C.
II. H1 Histamine receptor binding assay:
1. FDCL and comparative compounds for assay were independently solubilized at 1 mg/ml DMSO by vortexing, or if necessary by sonication. The first dilution, 100-fold, was made in 50 mM Tris-HCl, pH 7.5, at room temperature. The three or four subsequent ten-fold serial dilutions were made in 1% DMSO/50 mM Tris-HCl, pH 7.5. Drug solutions and assay plates were kept at room temperature during the course of the assay set up.
2. Test compounds were assayed at four or five concentrations: 1, 0.1, 0.01, 0.001, and 0.0001 μg/ml. Twenty μl of drug solution was pipeted into each of three wells.
3. [^3H]Pyrilamine was diluted approximately 2000-fold with ice-cold […] Tris-HCl, pH 7.5 (to a working concentration of 20-25 nM), and put on ice.
4. A frozen tissue pellet was thawed in a 25° C. water bath, resuspended in 50 mM Tris-HCl, pH 7.5, at 1.7-2 mg/ml by brief break-up on the Polytron, and put on ice.
5. Twenty μl of diluted [^3H]pyrilamine was added to each well.
6. One hundred fifty μl of tissue suspension was added to each well.
7. The top of the plate was covered and it was placed in a 25° C. shaking water bath (about 60 oscillations/min) for 30 min..
8. Samples were filtered on a Tomtec Mach 2 harvester (available from Tomtec Corporation, Orange, Conn.) through a GF/B filter mat (from Wallac, Inc., Gaithersburg, Md.) presoaked in 0.3% polyethylenimine. Each sample was thrice washed with ice-cold 50 mM Tris-HCl, pH 7.5 dried 20 sec on the Tomtec, and dried 3-4 min in a microwave oven on a paper towel. The filter was impregnated with MELTILEX brand wax scintillant (from Wallac Corporation) and counted on a Betaplate scintillation counter (from Wallac Corporation).
9. Specific binding was determined as the difference between total and nonspecific binding. […]

T1 sequence (Q9JI35 whole entry): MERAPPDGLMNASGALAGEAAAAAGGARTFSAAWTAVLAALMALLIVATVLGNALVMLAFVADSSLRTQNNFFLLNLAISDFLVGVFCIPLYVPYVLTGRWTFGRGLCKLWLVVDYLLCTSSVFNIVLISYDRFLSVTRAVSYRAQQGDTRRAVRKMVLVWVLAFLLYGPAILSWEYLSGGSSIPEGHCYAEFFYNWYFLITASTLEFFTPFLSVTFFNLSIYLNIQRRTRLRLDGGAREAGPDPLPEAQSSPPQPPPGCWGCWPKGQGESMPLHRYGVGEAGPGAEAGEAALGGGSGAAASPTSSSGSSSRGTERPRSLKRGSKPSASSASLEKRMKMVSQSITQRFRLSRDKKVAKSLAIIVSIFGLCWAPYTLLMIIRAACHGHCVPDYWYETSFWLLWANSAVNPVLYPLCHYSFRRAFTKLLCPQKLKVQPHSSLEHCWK

Regarding `Clc1ccc2c(c1)CCc1cccnc1C2CCNCCCc1c[nH]cn1` (centres unmarked), the Ki on H3 receptors worked out at 37 nM; at histamine H1 receptor, 40 nM.
As for `Clc1ccc2c(c1)CCc1cccnc1C2CCN(CCCc1c[nH]cn1)CCCc1c[nH]cn1` (centres unmarked), the Ki on H3 receptors was determined as 25 nM; on histamine H1 receptor, 571 nM.
Regarding `Clc1ccc2c(c1)CCc1cccnc1C2NCCCCc1c[nH]cn1` (centres unmarked), the results for the Ki on H3 receptors and on histamine H1 receptor were 29 nM and 41 nM, respectively.
Regarding `Clc1ccc2c(c1)CCc1cccnc1C2CCN(CCCCCc1c[nH]cn1)CCCCCc1cnc[nH]1` (centres unmarked), on H3 receptors, the Ki stood at 26 nM.
Regarding `Clc1ccc2c(c1)CCc1cccnc1C2NCCCCCc1c[nH]cn1` (centres unmarked), the inhibition constant (Ki) on H3 receptors stood at 7.5 nM; on histamine H1 receptor, 502 nM.
With `Clc1ccc2c(c1)CCc1cccnc1C2CCNCCCCCc1c[nH]cn1` (centres unmarked), on H3 receptors, the Ki came out at 7 nM.
On the same count and under the same terms, next, `Clc1ccc2c(c1)CCc1cccnc1C2CCNCCCCc1c[nH]cn1` (centres unmarked): 7.5 nM; `Clc1ccc2c(c1)CCc1cccnc1C2CCN(CCCCc1c[nH]cn1)CCCCc1c[nH]cn1` (centres unmarked): 9 nM.
As for `Clc1ccc2c(c1)CCc1cccnc1C2NCCc1c[nH]cn1` (centres unmarked), the values for the Ki at H3 receptors and on histamine H1 receptor were 70 nM and 144 nM, respectively.
